# Results as given in ChEMBL document CHEMBL1201862, “PubChem BioAssay data set” (2004).
# The source made the active and inactive calls.
# Legend:
# [1] = molecular target: T1, Corticotropin-releasing factor receptor 2/Corticotropin-releasing factor-binding protein (Homo sapiens, UniProt P24387+Q13324); assay: activators of CRF receptor 2 with binding protein – uHTS hits, confirmation (AID 602473); format: functional; conditions: read-out: EC50_Mean
# T1 sequence (Q13324 whole entry): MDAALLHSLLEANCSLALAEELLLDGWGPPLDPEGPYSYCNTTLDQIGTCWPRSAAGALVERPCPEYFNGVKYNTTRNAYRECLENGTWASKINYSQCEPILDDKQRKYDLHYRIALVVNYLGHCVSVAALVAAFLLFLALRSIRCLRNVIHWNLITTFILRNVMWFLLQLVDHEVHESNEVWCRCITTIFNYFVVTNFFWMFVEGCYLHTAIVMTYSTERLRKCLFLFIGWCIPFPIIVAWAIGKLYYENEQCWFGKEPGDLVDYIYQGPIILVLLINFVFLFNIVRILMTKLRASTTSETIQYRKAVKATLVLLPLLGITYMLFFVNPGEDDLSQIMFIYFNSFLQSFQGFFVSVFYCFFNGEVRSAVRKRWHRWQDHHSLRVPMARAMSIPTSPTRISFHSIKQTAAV
# T1 sequence (P24387 whole entry): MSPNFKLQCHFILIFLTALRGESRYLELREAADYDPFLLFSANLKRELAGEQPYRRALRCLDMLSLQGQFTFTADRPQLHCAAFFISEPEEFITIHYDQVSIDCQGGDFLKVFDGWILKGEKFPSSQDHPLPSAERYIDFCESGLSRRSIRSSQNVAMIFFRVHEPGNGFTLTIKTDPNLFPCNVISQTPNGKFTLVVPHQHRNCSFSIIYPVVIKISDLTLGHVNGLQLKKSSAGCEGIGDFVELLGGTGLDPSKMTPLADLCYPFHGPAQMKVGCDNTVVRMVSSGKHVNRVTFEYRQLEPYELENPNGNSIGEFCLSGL
# [2] = molecular target: T1, Corticotropin-releasing factor receptor 2/Corticotropin-releasing factor-binding protein; assay: Dose Response confirmation of uHTS hits for small molecule antagonists of the CRF-binding protein and CRF-R2 receptor complex.; format: functional; conditions: read-out: IC50_Mean
# [3] = cells; format: functional, cell-based
# [4] = cells; format: functional, cell-based; remark: listed apart in the source
# [5] = molecular target: T2, Polyadenylate-binding protein 1 (Homo sapiens, UniProt P11940); assay: MLLE domain peptide-binding blockers, IC50 – biochemical, fluorescence polarization, FITC-PAM2 peptide, dose response (AID 602259); format: functional; conditions: read-out: IC50_Mean
# T2 sequence (P11940 whole entry, the tested form may be a part): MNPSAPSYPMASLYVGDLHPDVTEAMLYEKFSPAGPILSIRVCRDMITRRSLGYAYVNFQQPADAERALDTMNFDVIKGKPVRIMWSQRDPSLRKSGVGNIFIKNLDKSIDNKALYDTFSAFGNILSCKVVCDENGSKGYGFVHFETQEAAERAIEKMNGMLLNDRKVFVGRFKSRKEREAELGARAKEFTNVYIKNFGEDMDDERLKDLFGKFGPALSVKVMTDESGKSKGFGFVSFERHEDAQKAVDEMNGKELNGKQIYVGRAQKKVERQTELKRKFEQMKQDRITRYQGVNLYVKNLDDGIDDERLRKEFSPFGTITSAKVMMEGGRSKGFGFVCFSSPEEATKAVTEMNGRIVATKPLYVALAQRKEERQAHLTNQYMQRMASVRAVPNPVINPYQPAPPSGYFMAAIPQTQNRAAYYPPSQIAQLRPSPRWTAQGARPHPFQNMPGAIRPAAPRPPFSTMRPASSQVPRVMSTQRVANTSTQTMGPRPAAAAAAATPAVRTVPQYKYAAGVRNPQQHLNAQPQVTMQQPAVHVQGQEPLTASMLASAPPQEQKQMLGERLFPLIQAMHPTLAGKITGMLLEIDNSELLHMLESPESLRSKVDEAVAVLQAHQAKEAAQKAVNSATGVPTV
# [6] = molecular target: T2, Polyadenylate-binding protein 1; assay: MLLE binding blockers, Cy5 peptide tracer – biochemical, fluorescence polarization, Cy5-PAM2 peptide, secondary, miRNA deadenylation inhibitor project, dose response (AID 602260); format: functional; conditions: read-out: IC50_Mean
# [7] = molecular target: Induced myeloid leukemia cell differentiation protein Mcl-1 (Homo sapiens, UniProt Q07820); format: functional
# Induced myeloid leukemia cell differentiation protein Mcl-1, sequence (Q07820 whole entry): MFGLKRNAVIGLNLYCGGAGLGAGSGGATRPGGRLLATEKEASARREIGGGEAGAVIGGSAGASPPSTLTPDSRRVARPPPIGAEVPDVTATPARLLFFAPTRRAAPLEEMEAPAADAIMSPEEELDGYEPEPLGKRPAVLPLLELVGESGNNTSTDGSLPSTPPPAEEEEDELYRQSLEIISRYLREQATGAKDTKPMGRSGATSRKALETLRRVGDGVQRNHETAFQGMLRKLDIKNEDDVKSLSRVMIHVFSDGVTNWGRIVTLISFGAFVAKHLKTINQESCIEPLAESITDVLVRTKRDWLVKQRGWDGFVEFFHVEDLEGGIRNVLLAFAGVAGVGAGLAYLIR
# [8] = reduction of Shn3 3'UTR-driven luciferase in osteoblasts – cell-based, Clone20 osteoblasts, firefly luciferase, cherry-picked, dose response (AID 624132); format: functional;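 note: firefly luciferase luminescence from reporter carrying the Shn3 3'UTR in osteoblasts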
# [9] = loss of viability in HepG2 cells – cell-based, CellTiter-Glo, cherry-picked, cytotoxicity control for Shn3 inhibitor project, dose response (AID 624134); format: functional
# [10] = non-specific 3'UTR reporter inhibition in Clone20-Shn3RL – cell-based, Renilla luciferase, cherry-picked, counter-screen for Shn3 inhibitor project, dose response (AID 624133); format: functional
# [11] = blockers of HIV-1 envelope-mediated cell-cell fusion – cherry-pick, dose response (AID 652057); format: functional, cell-based
# [12] = HIV-1 AD8 envelope cell-cell fusion blockers – cherry-pick, dose response (AID 652062); format: functional, cell-based;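 note: luciferase signal from cell-cell fusion driven by HIV-1 clade B AD8 Env; potency is for inhibitors of fusion seen as a drop in luminescence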
# [13] = off-target signal loss in HeLa-CEM21 co-culture – HeLa F-luc CTL cells, cherry-picked, counter-screen for HIV-1 Env fusion inhibitor project, dose response (AID 652040); format: functional, cell-based;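 note: potency for signal decrease marking cytotoxic or nonspecific inhibition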
# [14] = blockers of HIV-1 ZM109 envelope-driven cell-cell fusion – HeLa effector, CEM target cells, luciferase, cherry-pick, dose response (AID 652058); format: functional, cell-based;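 note: luciferase signal from HIV-1 Env mediated cell-cell fusion of effector and target cells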
# [15] = molecular target: T3, Fatty acid synthase (Homo sapiens, UniProt P49327); assay: inhibition of human FAS-TE enzyme activity – biochemical, endpoint fluorescence intensity, uHTS hits, dose response (AID 624327); format: functional;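 note: fluorescence from hydrolysis of an O-methyl fluorescein acyl ester substrate by the enzyme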
# T3 sequence (P49327 whole entry): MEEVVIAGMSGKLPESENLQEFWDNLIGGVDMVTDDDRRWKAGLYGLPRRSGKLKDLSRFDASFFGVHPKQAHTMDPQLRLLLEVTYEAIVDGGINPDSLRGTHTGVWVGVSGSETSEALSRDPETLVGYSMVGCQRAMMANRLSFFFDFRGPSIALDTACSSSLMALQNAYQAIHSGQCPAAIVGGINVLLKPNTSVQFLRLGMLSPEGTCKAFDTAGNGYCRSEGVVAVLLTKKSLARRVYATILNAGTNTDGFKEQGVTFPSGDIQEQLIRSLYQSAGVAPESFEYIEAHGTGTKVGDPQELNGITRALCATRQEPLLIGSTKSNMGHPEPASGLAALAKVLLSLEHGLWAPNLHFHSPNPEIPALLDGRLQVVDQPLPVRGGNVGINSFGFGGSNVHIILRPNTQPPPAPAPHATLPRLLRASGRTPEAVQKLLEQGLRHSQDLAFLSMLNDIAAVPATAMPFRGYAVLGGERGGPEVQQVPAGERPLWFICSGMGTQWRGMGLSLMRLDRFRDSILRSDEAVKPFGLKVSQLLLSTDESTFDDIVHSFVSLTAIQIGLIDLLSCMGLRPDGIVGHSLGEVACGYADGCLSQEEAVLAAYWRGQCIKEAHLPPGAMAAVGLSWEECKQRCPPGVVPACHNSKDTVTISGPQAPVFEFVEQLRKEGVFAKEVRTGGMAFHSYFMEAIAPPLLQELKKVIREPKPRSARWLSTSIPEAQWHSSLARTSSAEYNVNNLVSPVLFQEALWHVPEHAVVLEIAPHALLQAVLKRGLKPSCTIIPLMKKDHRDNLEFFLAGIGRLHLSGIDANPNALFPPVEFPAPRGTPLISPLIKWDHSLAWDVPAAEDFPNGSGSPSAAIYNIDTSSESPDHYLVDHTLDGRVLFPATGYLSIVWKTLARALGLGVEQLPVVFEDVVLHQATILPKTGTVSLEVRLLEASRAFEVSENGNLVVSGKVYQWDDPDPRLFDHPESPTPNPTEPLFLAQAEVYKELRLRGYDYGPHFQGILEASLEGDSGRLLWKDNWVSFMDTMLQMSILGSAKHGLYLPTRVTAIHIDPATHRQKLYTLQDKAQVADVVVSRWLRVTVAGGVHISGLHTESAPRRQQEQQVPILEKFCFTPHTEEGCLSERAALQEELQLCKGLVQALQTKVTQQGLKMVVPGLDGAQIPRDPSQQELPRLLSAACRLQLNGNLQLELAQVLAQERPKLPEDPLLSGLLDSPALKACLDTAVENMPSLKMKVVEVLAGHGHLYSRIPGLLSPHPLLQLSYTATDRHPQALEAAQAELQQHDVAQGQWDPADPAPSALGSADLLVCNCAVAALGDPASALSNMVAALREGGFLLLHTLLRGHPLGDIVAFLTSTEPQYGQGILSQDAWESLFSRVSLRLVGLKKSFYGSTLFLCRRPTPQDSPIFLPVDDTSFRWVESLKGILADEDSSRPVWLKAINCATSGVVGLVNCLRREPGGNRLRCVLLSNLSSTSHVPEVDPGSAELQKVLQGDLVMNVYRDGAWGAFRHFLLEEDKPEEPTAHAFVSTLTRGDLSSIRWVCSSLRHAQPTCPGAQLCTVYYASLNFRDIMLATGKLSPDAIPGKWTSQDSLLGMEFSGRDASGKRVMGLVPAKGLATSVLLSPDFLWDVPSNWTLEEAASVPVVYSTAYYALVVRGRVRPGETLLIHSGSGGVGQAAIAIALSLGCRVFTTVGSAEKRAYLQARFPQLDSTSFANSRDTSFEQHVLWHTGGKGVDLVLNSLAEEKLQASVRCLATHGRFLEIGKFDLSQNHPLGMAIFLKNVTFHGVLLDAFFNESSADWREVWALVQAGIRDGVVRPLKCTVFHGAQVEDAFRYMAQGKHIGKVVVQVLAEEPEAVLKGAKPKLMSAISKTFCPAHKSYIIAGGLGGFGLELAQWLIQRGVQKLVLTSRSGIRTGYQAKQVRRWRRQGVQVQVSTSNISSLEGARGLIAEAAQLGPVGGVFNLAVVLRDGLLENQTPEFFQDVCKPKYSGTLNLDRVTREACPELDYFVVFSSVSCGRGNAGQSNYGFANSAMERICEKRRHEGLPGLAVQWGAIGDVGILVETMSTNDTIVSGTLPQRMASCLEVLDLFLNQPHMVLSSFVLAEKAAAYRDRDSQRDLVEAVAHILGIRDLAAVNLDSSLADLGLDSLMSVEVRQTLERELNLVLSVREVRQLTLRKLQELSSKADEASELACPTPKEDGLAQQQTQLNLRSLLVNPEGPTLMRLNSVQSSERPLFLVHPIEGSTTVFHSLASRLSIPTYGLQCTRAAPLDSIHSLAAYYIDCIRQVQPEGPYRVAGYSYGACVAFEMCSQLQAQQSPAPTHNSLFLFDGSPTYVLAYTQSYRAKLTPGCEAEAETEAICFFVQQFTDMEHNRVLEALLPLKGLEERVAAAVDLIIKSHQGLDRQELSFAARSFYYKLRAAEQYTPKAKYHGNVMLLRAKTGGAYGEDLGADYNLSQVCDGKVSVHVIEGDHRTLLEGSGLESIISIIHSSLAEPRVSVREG
# [16] = molecular target: T3, Fatty acid synthase; assay: inhibition of human FAS-TE enzyme activity – biochemical, kinetic fluorescence intensity, dose response (AID 624326); format: functional;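 note: rate of fluorescence rise from hydrolysis of a fluorogenic O-methyl fluorescein ester substrate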
# [17] = Luminescence Cell-Based Dose Confirmation HTS to Identify Activators of 5'UTR Stem-Loop Driven Alpha-Synuclein mRNA Translation in H4 Neuroglioblastoma Cells. [Related pubchem assays: 1829 (Project Summary), 1814 (Primary HTS)]; format: functional
# [18] = Luminescence Cell-Based Dose Response HTS to Identify Activators of Luciferase Translation or Activity in H4 […] Cells. [Related pubchem assays: 1829 (Project Summary), 1814 (Primary HTS)]; format: functional
# [19] = system: H4; assay: Luminescence Cell-Based Dose Response HTS to Identify Activators of 5'UTR Stem-Loop Driven Prion Protein mRNA Translation in H4 Neuroglioblastoma Cells. [Related pubchem assays: 1829 (Project Summary), 1814 (Primary HTS)]; format: functional; conditions: Homo sapiens
# [20] = molecular target: T4, Zinc finger protein mex-5 (Caenorhabditis elegans, UniProt Q9XUB2); assay: potency of MEX-5 RNA-binding blockers – biochemical, C. elegans, fluorescence polarization, dose response (AID 1960)
# T4 sequence (Q9XUB2 whole entry): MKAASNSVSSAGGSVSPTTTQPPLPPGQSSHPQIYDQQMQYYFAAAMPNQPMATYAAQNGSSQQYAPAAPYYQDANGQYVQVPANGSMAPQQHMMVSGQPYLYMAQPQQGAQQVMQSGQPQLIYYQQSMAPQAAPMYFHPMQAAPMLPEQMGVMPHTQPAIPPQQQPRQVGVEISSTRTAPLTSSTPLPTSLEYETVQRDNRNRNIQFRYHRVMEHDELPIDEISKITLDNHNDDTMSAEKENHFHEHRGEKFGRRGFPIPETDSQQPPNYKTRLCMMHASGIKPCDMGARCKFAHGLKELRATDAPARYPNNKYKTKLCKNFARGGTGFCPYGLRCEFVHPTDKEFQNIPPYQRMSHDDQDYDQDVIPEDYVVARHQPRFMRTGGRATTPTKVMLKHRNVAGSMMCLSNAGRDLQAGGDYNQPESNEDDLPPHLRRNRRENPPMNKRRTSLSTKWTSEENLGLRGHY
# [21] = molecular target: T5, RNA-binding protein pos-1 (Caenorhabditis elegans, UniProt G5EF15); assay: disruptors of C. elegans POS-1 RNA interaction – biochemical, fluorescence polarization, dose response (AID 1964);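 note: purified POS-1 fused to maltose binding protein made in E. coli; potency of compounds blocking POS-1 binding to fluorescent RNA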
# T5 sequence (G5EF15 whole entry): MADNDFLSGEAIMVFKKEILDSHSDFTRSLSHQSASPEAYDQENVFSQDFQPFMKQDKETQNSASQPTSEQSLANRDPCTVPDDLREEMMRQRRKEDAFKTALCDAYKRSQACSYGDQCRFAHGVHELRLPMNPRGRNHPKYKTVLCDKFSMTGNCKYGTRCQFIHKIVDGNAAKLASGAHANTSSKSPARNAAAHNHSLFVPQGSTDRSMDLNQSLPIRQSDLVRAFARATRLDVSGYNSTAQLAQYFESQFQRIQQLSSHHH
# [22] = Luminescence Cell-Based Dose Retest to Confirm Inhibitors of Cancer Stem Cells. [Related pubchem assays (depositor defined):AID2717, AID2721]; format: functional; conditions: Homo sapiens
# [23] = system: INS1; assay: INS-1E survival protection against cytokine death – cell-based, luminescence, retest, dose response (AID 449756); format: functional; conditions: Rattus norvegicus;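 note: cell death triggered by IL-1 beta plus TNF-alpha plus IFN-gamma mixture; protective hits raise ATP signal compared with cytokine alone wells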
# [24] = molecular target: FAD-linked sulfhydryl oxidase ALR (Homo sapiens, UniProt P55789); assay: ALR-catalysed DTT oxidation blockers – biochemical, H2O2 detection, luminescence, cherry-pick, dose response (AID 493248)
# FAD-linked sulfhydryl oxidase ALR, sequence (P55789 whole entry): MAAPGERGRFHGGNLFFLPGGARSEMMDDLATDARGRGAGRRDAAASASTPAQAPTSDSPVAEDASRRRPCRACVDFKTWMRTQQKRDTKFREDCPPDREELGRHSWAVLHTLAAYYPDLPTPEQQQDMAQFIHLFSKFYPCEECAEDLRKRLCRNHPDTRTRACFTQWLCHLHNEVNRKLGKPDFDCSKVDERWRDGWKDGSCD
smiles,measurement,setting,value
CC1CCN(C(=O)C2CCN(S(=O)(=O)c3cccs3)CC2)CC1,EC50,[1],> 53 µM (inactive)
same,IC50,[2],> 47.1 µM (inactive)
CC(=O)Nc1sc(-c2ccccc2)nc1-c1ccccc1,EC50,[3],> 350 µM (not active)
same,EC50,[4],> 350 µM (not active)
CCOC(=O)c1sc(NC(=S)NC(=O)c2ccco2)nc1C,IC50,[5],> 66 µM (inactive)
same,IC50,[6],> 66 µM (inactive)
C/C=C\C=C/C(=O)Nc1cccc(C2=NOC3(C2)C[C@@H](C(N)=O)N(C(=O)c2ccccc2)C3)c1 (some centres undefined),IC50,[7],6.9 µM (not active)
CCN(CC)S(=O)(=O)c1ccc(-c2ccc(S(=O)(=O)N(CC)CC)cc2)cc1,AC50,[8],3.81 µM (active)
same,AC50,[9],6.43 µM (active)
same,AC50,[10],3.13 µM (active)
Cc1nn(-c2ccccc2)c(NC(=O)c2cccs2)c(-c2ccccc2Cl)c1=O,EC50,[1],> 53 µM (inactive)
same,IC50,[2],> 47.1 µM (inactive)
Cc1cccnc1NC(=S)NC(=O)c1oc2ccccc2c1C,IC50,[5],> 66 µM (inactive)
same,IC50,[6],> 66 µM (inactive)
CC[C@@]12C(=O)N(c3ccc(OC)cc3)C(=O)N1[C@H](c1ccc(Cl)cc1)[C@@H]1C(=O)N(C3CCCCC3)C(=O)[C@@H]12,AC50,[11],< 260 nM (active)
same,AC50,[12],0.607 µM (active)
same,AC50,[13],407 nM (active)
same,AC50,[14],379 nM (active)
CNc1sc(C(=O)c2ccc(F)cc2)c(N)c1-c1nc2ccccc2s1,IC50,[7],2.45 µM (active)
O=C(c1ccccc1)C(CN1CCCCC1)c1ccccc1 (centres undefined),AC50,[8],2.41 µM (active)
same,AC50,[9],15.7 µM (active)
same,AC50,[10],5.56 µM (active)
O=C1[C@H]2[C@@H](c3ccc(F)cc3)N3C(=O)N(c4ccccc4)C(=O)[C@@]3(Cc3ccccc3)[C@H]2C(=O)N1C1CCCCC1,AC50,[8],> 70 µM (inactive)
same,IC50,[15],17.5 µM (active)
same,AC50,[9],64.9 µM (active)
same,IC50,[16],11 µM (active)
same,AC50,[10],31.3 µM (active)
CC(C)(C)C1=CC=C(C(C)(C)C)C(=O)C1=O,EC50,[17],> 120 µM (not active)
same,EC50,[18],> 120 µM (not active)
same,IC50,[7],3.86 µM (active)
same,EC50,[19],> 120 µM (not active)
O=C(CCSc1nc2ccccc2s1)N/N=C/c1c(O)ccc2ccccc12,EC50,[20],14.6 µM (active)
same,EC50,[21],21.2 µM (active)
same,EC50,[3],31.3 µM (active)
same,EC50,[4],8.97 µM (active)
same,AC50,[22],4.52 µM (active)
same,AC50,[23],1.95 µM (active)
Cc1ccc(S(=O)(=O)N(C)C)cc1NC(=O)COc1ccccc1C(=O)Nc1ccccc1,AC50,[11],1780 nM (active)
same,AC50,[12],8.41 µM (active)
same,AC50,[13],3870 nM (active)
same,AC50,[14],2560 nM (active)
CCOP(=O)(C#CC(C)(C)C)C1(O)CCCCC1 (centres undefined),EC50,[3],> 350 µM (not active)
same,EC50,[4],> 350 µM (not active)
CCCCCCCCNS(=O)(=O)CCNCc1ccc(OC)cc1,EC50,[1],> 53 µM (inactive)
same,IC50,[2],> 47.1 µM (inactive)
Cc1ccc(NC(S)=Nc2ccc(F)cc2)cc1,IC50,[5],> 66 µM (inactive)
same,IC50,[6],> 66 µM (inactive)
CCCCCNC1=CC(=O)CC(c2ccccc2)C1 (centres undefined),EC50,[1],> 53 µM (inactive)
same,IC50,[2],> 47.1 µM (inactive)
COc1cc(C(=O)NCCc2nc3ccccc3n2C)cc(OC)c1OC,EC50,[3],> 350 µM (not active)
same,EC50,[4],> 350 µM (not active)
Cc1cc(C(=O)NC(=S)Nc2cccc(NC(=O)C(C)C)c2)ccc1[N+](=O)[O-],IC50,[5],> 66 µM (inactive)
same,IC50,[6],> 66 µM (inactive)
COc1cc2nc(SCc3c(C)noc3C)n(CCC3=CCCCC3)c(=O)c2cc1OC,EC50,[1],> 53 µM (inactive)
same,IC50,[2],> 47.1 µM (inactive)
CC(=O)N1c2ccc(S(=O)(=O)N3CCC(C(=O)Nc4cccc(F)c4)CC3)cc2CC1C (centres undefined),AC50,[8],4.54 µM (active)
same,AC50,[9],48.7 µM (active)
same,AC50,[10],12 µM (active)
CCn1c(SCC(=O)Nc2nncs2)nnc1-c1ccco1,EC50,[3],> 350 µM (not active)
same,EC50,[4],> 350 µM (not active)
COc1ccc(NC(=S)N/N=C/c2ccc(F)cc2)cc1OC,IC50,[5],> 66 µM (inactive)
same,IC50,[6],> 66 µM (inactive)
COC(=O)C(CC(=O)Nc1cc(C)ccc1C)Nc1ccccc1OC (centres undefined),EC50,[1],> 53 µM (inactive)
same,IC50,[2],> 47.1 µM (inactive)
same,AC50,[24],13.1 µM (active)
Cc1cccc(NC(=O)C(NS(=O)(=O)c2ccc3c(c2)CCC(=O)N3)c2ccccc2)n1 (centres undefined),IC50,[5],> 66 µM (inactive)
same,IC50,[6],> 66 µM (inactive)
Cc1ccc(/C=N/NC(=O)CN2CCN(Cc3ccccc3Cl)CC2)o1,EC50,[3],> 350 µM (not active)
same,EC50,[4],> 350 µM (not active)
